ChEMBL document CHEMBL1144272, “Generation of a new class of hNK(2) receptor ligands using the 'fragment approach'” (Bioorg Med Chem Lett, 2005)

Target: T1, Substance-K receptor (Homo sapiens, UniProt P21452)
T1 sequence (P21452 whole entry): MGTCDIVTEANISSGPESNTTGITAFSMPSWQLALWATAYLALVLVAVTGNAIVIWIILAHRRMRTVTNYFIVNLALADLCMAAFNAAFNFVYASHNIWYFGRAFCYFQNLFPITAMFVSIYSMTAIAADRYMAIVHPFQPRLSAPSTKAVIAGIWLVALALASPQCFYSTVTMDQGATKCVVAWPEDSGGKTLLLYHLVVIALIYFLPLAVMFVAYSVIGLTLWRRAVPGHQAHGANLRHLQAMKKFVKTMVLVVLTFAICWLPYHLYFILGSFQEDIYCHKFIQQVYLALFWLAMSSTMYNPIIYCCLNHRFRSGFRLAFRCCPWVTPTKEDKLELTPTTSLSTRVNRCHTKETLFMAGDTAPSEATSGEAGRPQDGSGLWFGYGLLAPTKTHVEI
Assay: Binding affinity for human tachykinin receptor 2 was measured by using [125I]NKA as radio ligand

Row | Ki [nM] | Compound
1 | > 1000 | O=C(Nc1ccc(OCc2ccccc2)cc1)N[C@@H](Cc1ccccc1)C(=O)NCCCN1CCOCC1 (stereo in doubt; 31a (L))
2 | 100 | O=C(Nc1ccc(OCc2ccccc2)cc1)N[C@H](Cc1ccccc1)C(=O)NCCCN1CCOCC1 (stereo in doubt; 31b (D))
3 | 1200 | O=C(Nc1ccc(OCc2ccccc2)cc1)N[C@@H](Cc1ccccc1)C(=O)NCCCN1CCOCC1 (stereo in doubt; 32a (L))
4 | 630 | O=C(Nc1ccc(OCc2ccccc2)cc1)N[C@H](Cc1ccccc1)C(=O)NCCCN1CCOCC1 (stereo in doubt; 32b (D))
